Each structure is given as a SMILES string.

The nature of one series: method code SF-AS, from DOI: 10.1021/jf00090a013.
For `CNC(=O)N(C)C(=O)Nc1cc(C(=O)OC)ccc1F`, the logP (usually the decadic logarithm of the partition coefficient of the neutral form, usually between octanol and water) came to 2.28.
`CNC(=O)N(C)C(=O)Nc1cc([N+](=O)[O-])ccc1F` registered a logP of 2.3. This logP and that of the compound before are within 0.2 log units of each other.
The same measure, in the same setting: the value for `CNC(=O)N(C)C(=O)Nc1cc(C(C)C)ccc1F` was 3.53.
Same read-out and setting: then `CCC(CC)c1ccc(F)c(NC(=O)N(C)C(=O)NC)c1`, with 4.46; and `CNC(=O)N(C)C(=O)Nc1cc(I)ccc1F`, with 3.58.
`CCc1ccc(F)c(NC(=O)N(C)C(=O)NC)c1` gave a logP of 3.23.
The compound `CNC(=O)N(C)C(=O)Nc1ccccc1F` showed a logP of 2.12.
Still for that read-out and setting: then `CNC(=O)N(C)C(=O)Nc1cc(OC(C)C)ccc1F`, with 3.08; and `CNC(=O)N(C)C(=O)Nc1cc(C2CCCCC2)ccc1F`, with 4.58.

Assay in another series: not given
In turn, `CNC(=O)N(C)C(=O)Nc1cc(C(C)=O)ccc1F` gave a lipophilicity (logP) of 1.82.
Still for that read-out and setting: then `CNC(=O)N(C)C(=O)Nc1cc(C(C)(C)C)ccc1F`, with 3.96.
Take `CNC(=O)N(C)C(=O)Nc1cc(OC)ccc1F`: the logP worked out at 2.14.
Still for that read-out and setting: then `CNC(=O)N(C)C(=O)Nc1cc(-c2ccccc2)ccc1F`, with 3.78; and `CNC(=O)N(C)C(=O)Nc1cc(Cc2ccccc2)ccc1F`, with 3.9; and `CNC(=O)N(C)C(=O)Nc1cc(F)ccc1F`, with 2.4.
As for `CNC(=O)N(C)C(=O)Nc1cc(S(=O)(=O)C(C)C)ccc1F`, the logP turned out to be 1.87.

The values above are taken from the SangsterLogP compilation.
